Results: publication PMC7006816, “Human β-Defensin 2 Mediated Immune Modulation as Treatment for Experimental Colitis” (Frontiers in Immunology, 2020)
Where no end group is shown, it is not given here.

Experiments:
mice with DSS colitis = conditions: rectally applied; cited from earlier work
CD patients = conditions: clinical trial; cited from earlier work
Source text: Despite ongoing development of therapeutic approaches, new treatment strategies for the management of IBD are still urgently needed. Corticosteroids remain the standard therapeutic options for active CD and UC. However, their beneficial effects are associated with severe side effects such as osteoporosis, moon face, mood disturbances, glaucoma, and hypertension ([47]). In recent years, several new therapeutics targeting the molecular mechanisms of intestinal and systemic inflammation have been developed. Among these, anti-TNFα antibodies have been the most successful and most commonly used bio ...

[1] = system: SCID mice with CD4+/CD25− T cell transfer colitis; experiment: T cell transfer colitis model; format: in vivo, mouse
Protocol: This study was performed by the Department of Biomedical Science at the University of Catania according to directive 86/609 EEC and approved by Novozymes science ethics committee. 8 weeks old female BALB/c and C.B-17 female SCID mice were purchased from Harlan (Italy). Colitis was induced in severe combined immunodeficiency (SCID) mice by transplantation of CD4^+/CD25^− T cells from the BALB/c mice. Briefly, lymphomonocytes isolated from spleen or lymph nodes from BALB/c mice were subjected to negative selection of CD4^+ T cells. Afterwards, CD4^+/CD25^+ cells were positively isolated by binding to the beads from the CD4^+ T cell suspensions and the CD4^+/CD25^− were collected from supernatant. […] CD4^+/CD25^− cells were intraperitoneally injected to SCID mice at a concentration of 500,000 cells in a final volume of 0.2 ml RPMI 1640. Sham treated animals (n = 6) received 0.2 ml pure RPMI 1640. Diseased mice were randomized divided into 4 groups (n = 11) and treated once daily by s.c. application of PBS (vehicle), hBD2 (0.1 and 1 mg/kg, respectively) or 0.3 mg/kg Dexamethasone (Dexa., applied intraperitoneally). Treatments started 7 days post T cell transfer and continued daily for 86 days. Animals were weighed three times a week and monitored twice a week starting from day 42 for the clinical status, summarized as DAI. The DAI included body weight loss, stool consistency, and the presence of blood at the rectum. One animal in the vehicle and one in the Dexamethasone treated groups had to be sacrificed before the end of the study. At the end of the study, animals were sacrificed and the colon was removed and carefully cleaned for further analysis. First, the colon was weighed then a section from the middle was removed and fixed for pathologic survey. The rest of the colon (5 cm) was used to quantify the activity of myeloperoxidase in the tissue.
Myeloperoxidase activity was performed on 5 cm of colon previously frozen at −80°C. Colon was homogenized in 0.5% of HETAB dissolved in 10 mM of Phosphate-Citrate Buffer (pH 7.0) to enable the release of MPO enzyme from the neutrophil granules. Homogenated samples after three freeze-thaw cycles were spun at 3,000 × g at 4°C for 30 min. Pellets were resuspended in 0.5% HETAB in 10 mM Phosphate-Citrate Buffer and spun again at 3,000 × g at 4°C for 30 min. 500 ul of supernatant were delivered into a vial along with 500 ul of TMB in Phosphate-Citrate Buffer containing Perborate Sodium. Changes in absorbance at 620 and 450 nm were read by a spectrophotometer (IRIS). Peroxidase enzyme diluted in 0.5% HETAB in 10 mM Phosphate-Citrate Buffer and H2O was used as standard. Two-fold dilutions of standard were prepared at the highest concentration of 50 pg/ml. Reagents and samples were kept refrigerated. Substrate solution was prepared just before the assay. MPO activity expresses the amount of enzyme that is able to degrade […] of peroxide/min and it is expressed as U/g tissue weight.
Sections of the colon were taken from each animal and preserved in neutral buffered formaline for subsequent histological analysis. Sections were stained using haematoxylin and eosin for further scoring.

[2] = system: human dendritic cells and keratinocytes; conditions: cited from earlier work
Source text: Herein we report that hBD2 can be used as a systemically administered anti-inflammatory biological. hBD2 is well-tolerated, both in vitro, and in vivo. […] After su ...

murine BM-DC's [3] = experiment: Cytokine production by murine BM-DC's; format: cell-based, mouse
Protocol: (§1) BM-DC's were generated using granulocyte-macrophage colony-stimulating factor (GM-CSF) and RPMI-1640 medium (Merck) supplemented with 10% fetal calf serum (FBS; Life Technologies), 2 mM glutamine (Thermo Fisher), 100 U/ml penicillin/streptomycin (Gibco), 50 μM 2-mercaptoethanol (Roth), 1 mM sodium pyruvate (Biochrome), and 1x non-essential amino acids (Biochrome) as previously described ([28]). Shortly, 2 × 10^6 bone marrow cells flushed from the tibias and femurs of C57BL/6 mice were seeded in dishes containing 200 U/ml GM-CSF. After 3 days extra medium containing GM-CSF was added to the cells and on day 6 half of the medium was replaced by fresh […] containing GM-CSF. After 7 or 8 days slightly attached cells were harvested. Female C57BL/6JolaHsd mice were purchased from Janvier (St. Berthevin Cedex, France). Animal experiments were performed in strict accordance with the German regulations of the Society for Laboratory Animal Science (GV-SOLAS) and the European Health Law of the Federation of Laboratory Animal Science Associations (FELASA). The protocol was approved by the Regierungspräsidium Tübingen (Anzeige 09.01.2014).
2 × 10^5 murine BM-DC's or human Mo-DC's were seeded in 96-well round bottom plates. First they were pretreated with 100 ng/ml pertussis toxin (Sigma-Aldrich) or 5 μM of the CCR2 inhibitor RS 504393 (Tocris) and subsequently stimulated with 100 ng/ml LPS or 0.2 […] and 10 μg/ml or 100 μg/ml hBD2. 24 h later supernatants were collected and TNF-α [Biolegend (BM-DC's); R&D (Mo-DC's)] was analyzed according to the manufacturer's instructions. IL-10, IL-12, and IL-1β (LEGENDplex Biolegend) was as well-analyzed according to the manufacturer's instructions.

murine BM-DC's [4] = experiment: Flow cytometry of BM-DCs (p-NF-κB, p-CREB, MHCII, CD86); format: cell-based, mouse; conditions: RS504393 prior to LPS + hBD2; n = 6
Protocol: as §1
2 × 10^5 murine BM-DC's were seeded in 96-well round bottom plates and treated as described above. Cells were removed from the plate using Accutase (Sigma-Aldrich) and stained for 20 min at room temperature with Zombie Aqua (Biolegend) to exclude dead cells and extracellular antibodies against CD11c-APC (N418) (Miltenyi), MHCII-FITC (M5/114.15.2) (Miltenyi) and CD86-BV421 (GL-1) (Biolegend). For p-CREB staining cells were fixed and permeabilized with Foxp3 Staining Buffer Set (eBioscience) and stained with primary antibody phosphor-CREB mAb (Ser133; clone 87G3) (Cell Signaling) for 30 min in the dark at room temperature followed by secondary goat anti-rabbit IgG-DyLight™649 (Jackson ImmunoResearch) for 15 min at 4°C. To detect intracellular p-NF-κB BM-DCs were fixed with 2% paraformaldehyde (VWR) in PBS, permeabilized with 90% freezing methanol (Applichem) and stained with the primary antibodies to phosphor-NF-κB p65 (93H1) (Cell Signaling) for 60 min in the dark at room temperature followed by goat anti-rabbit IgG-PE-Cy7 (Santa Cruz Biotechnology) for 15 min at 4°C. PBS with 0,5% bovine serum albumin (Biomol) was used for all incubations and washing steps. At least 50,000 cells were acquired using a Canto-II flow cytometer (BD […]) with DIVA software (BD Biosciences) and were further analyzed using FlowJo 10.5 software (Tree Star).

[5] = Dexamethasone 0.3 mg/kg i.p. daily, n = 10

Compound: porcine β-defensin 2 [pBD2]
- Mucosal injury and epithelial barrier in DSS colitis (mice with DSS colitis): protective against mucosal injury and disruption of the epithelial barrier

Compound: Secukinumab
- Disease course in CD patients (CD patients): worsened the disease

Compound: C[C@@H]1C[C@H]2[C@@H]3CCC4=CC(=O)C=C[C@]4(C)[C@@]3(F)[C@@H](O)C[C@]2(C)[C@@]1(O)C(=O)CO [dexamethasone, Dexamethasone, reference compound]
- Histological analysis of colon ([1]; Dexamethasone 0.3 mg/kg i.p. daily): Less signs of inflammation
- Efficacy compared with hBD2 ([1]; Dexamethasone 0.3 mg/kg i.p. daily vs hBD2 s.c.): superior to hBD2 in the T cell transfer model
- Colon weight [1, 5]: improved DAI, stool score and colon weight significantly
- DAI [1, 5]: improved DAI, stool score and colon weight significantly
- Stool score [1, 5]: improved DAI, stool score and colon weight significantly

Compound: hBD3: defensin named only as hBD3, cited for cytotoxicity in contrast to hBD2 (GIINTLQKYYCRVRGGRCAVLSCLPKEEQIGKCSTRGRKCCRRKK; ends and bridges not checked; cysteine pairing not given here; UniProt P81534 23-67, looked up)
- Cytotoxic effects [2]: demonstrated cytotoxic effects

Compound: Cc1ccc2c(c1)C1(CCN(CCc3nc(-c4ccccc4)oc3C)CC1)OC(=O)N2 [RS504393, RS 504393, reference compound]
- Effect of pre-treatment on hBD2 modulation of cytokine secretion (murine BM-DC's [3]; 5 μM RS504393 before LPS and hBD2): prevented the anti-inflammatory effect of hBD2
- Effect of pre-treatment on hBD2-mediated change of CREB phosphorylation (murine BM-DC's [4]): prevented the increase in CREB phosphorylation
- Effect of pre-treatment on hBD2-mediated change of MHCII and CD86 expression (murine BM-DC's [4]): prevented this lower expression
- Effect of pre-treatment on hBD2-mediated change of NF-κB phosphorylation (murine BM-DC's [4]): prevented the hBD2-mediated reductions in NF-κB activation

Compound: pertussis toxin [reference compound]
- Effect of pre-treatment on hBD2 modulation of TNF-α, IL-1β, IL-10, IL-12p70 secretion (murine BM-DC's [3]; 100 ng/ml pertussis toxin before LPS and hBD2): prevented the observed immunomodulatory capacity of hBD2
